Data taken from ChEMBL document CHEMBL1139935, “Discovery of novel indazole-linked triazoles as antifungal agents” (2007).
In brackets after ≈: the same amount, converted by molar mass.

Columns and labels:
[1] = test system: Nakaseomyces glabratus; experiment: Antifungal activity against Candida glabrata ATCC 34138 by broth microdilution assay; assay type: functional
[2] = test system: Candida tropicalis; experiment: Antifungal activity against Candida tropicalis ATCC 750 by broth microdilution assay; assay type: functional
[3] = test system: Candida parapsilosis; experiment: Antifungal activity against Candida parapsilosis ATCC 21019 by broth microdilution assay; assay type: functional; conditions: Lodderomyces parapsilosis
[4] = test system: Clavispora lusitaniae; experiment: Antifungal activity against Candida lusitaniae ATCC 42720 by broth microdilution assay; assay type: functional
[5] = test system: Aspergillus flavus; experiment: Antifungal activity against Aspergillus flavus ATCC MYA-1004 by broth microdilution assay; assay type: functional
[6] = test system: Aspergillus niger; experiment: Antifungal activity against Aspergillus niger ATCC 9042 by broth microdilution assay; assay type: functional
[7] = test system: Aspergillus fumigatus; experiment: Antifungal activity against Aspergillus fumigatus ATCC 16424 by broth microdilution assay; assay type: functional
[8] = test system: Candida albicans; experiment: Antifungal activity against Candida albicans ATCC 36082 by broth microdilution assay; assay type: functional
[9] = test system: Pichia kudriavzevii; experiment: Antifungal activity against Candida krusei ATCC 6528 by broth microdilution assay; assay type: functional
[10] = test system: Cryptococcus neoformans; experiment: Antifungal activity against Cryptococcus neoformans ATCC 24065 by broth microdilution assay
[11] = test system: Aspergillus terreus; experiment: Antifungal activity against Aspergillus terreus ATCC 28301 by broth microdilution assay; assay type: functional

Row | SMILES | MIC80 [1] | MIC80 [2] | MIC80 [3] | MIC80 [4] | MIC80 [5] | MIC80 [6] | MIC80 [7] | MIC80 [8] | MIC80 [9] | MIC80 [10] | MIC80 [11]
1 | C[C@@H](n1ncc2cc(F)ccc21)[C@](O)(Cn1cncn1)c1ccc(F)cc1F | 4 µg/mL (≈ 10.3 µM) | 0.25 µg/mL (≈ 0.645 µM) | 0.125 µg/mL (≈ 0.323 µM) | ≤ 0.015 µg/mL | 4 µg/mL (≈ 10.3 µM) | 8 µg/mL (≈ 20.7 µM) | 4 µg/mL (≈ 10.3 µM) | ≤ 0.015 µg/mL | 1 µg/mL (≈ 2.58 µM) | 0.063 µg/mL (≈ 0.163 µM) | 4 µg/mL (≈ 10.3 µM)
2 | C[C@@H](n1cc2cc(Cl)ccc2n1)[C@](O)(Cn1cncn1)c1ccc(F)cc1F | 4 µg/mL (≈ 9.91 µM) | 0.031 µg/mL (≈ 0.0768 µM) | ≤ 0.015 µg/mL | ≤ 0.015 µg/mL | 0.5 µg/mL (≈ 1.24 µM) | 1 µg/mL (≈ 2.48 µM) | 0.25 µg/mL (≈ 0.619 µM) | ≤ 0.015 µg/mL | 0.125 µg/mL (≈ 0.31 µM) | 0.015 µg/mL (≈ 0.0371 µM) | 0.5 µg/mL (≈ 1.24 µM)
3 | C[C@@H](n1ncc2cc(N)ccc21)[C@](O)(Cn1cncn1)c1ccc(F)cc1F | > 8 µg/mL | 1 µg/mL (≈ 2.6 µM) | 2 µg/mL (≈ 5.2 µM) | 0.25 µg/mL (≈ 0.65 µM) | – | – | – | 0.25 µg/mL (≈ 0.65 µM) | 8 µg/mL (≈ 20.8 µM) | 1 µg/mL (≈ 2.6 µM) | –
4 | C[C@@H](n1ncc2cc(Br)ccc21)[C@](O)(Cn1cncn1)c1ccc(F)cc1F | 4 µg/mL (≈ 8.92 µM) | 1 µg/mL (≈ 2.23 µM) | 0.125 µg/mL (≈ 0.279 µM) | ≤ 0.015 µg/mL | 4 µg/mL (≈ 8.92 µM) | 4 µg/mL (≈ 8.92 µM) | 2 µg/mL (≈ 4.46 µM) | ≤ 0.015 µg/mL | 2 µg/mL (≈ 4.46 µM) | ≤ 0.015 µg/mL | 4 µg/mL (≈ 8.92 µM)
5 | C[C@@H](n1ncc2cc(Cl)ccc21)[C@](O)(Cn1cncn1)c1ccc(F)cc1F | 4 µg/mL (≈ 9.91 µM) | 0.5 µg/mL (≈ 1.24 µM) | 0.125 µg/mL (≈ 0.31 µM) | ≤ 0.015 µg/mL | 4 µg/mL (≈ 9.91 µM) | 8 µg/mL (≈ 19.8 µM) | 2 µg/mL (≈ 4.95 µM) | ≤ 0.015 µg/mL | 2 µg/mL (≈ 4.95 µM) | 0.031 µg/mL (≈ 0.0768 µM) | 4 µg/mL (≈ 9.91 µM)

Continued, values first:

Row | MIC80 [1] | MIC80 [2] | MIC80 [3] | MIC80 [4] | MIC80 [5] | MIC80 [6] | MIC80 [7] | MIC80 [8] | MIC80 [9] | MIC80 [10] | MIC80 [11] | SMILES
6 | > 8 µg/mL | 8 µg/mL (≈ 19.3 µM) | 0.25 µg/mL (≈ 0.603 µM) | 0.5 µg/mL (≈ 1.21 µM) | 32 µg/mL (≈ 77.2 µM) | 64 µg/mL (≈ 154 µM) | 32 µg/mL (≈ 77.2 µM) | 0.063 µg/mL (≈ 0.152 µM) | > 8 µg/mL | 0.5 µg/mL (≈ 1.21 µM) | 128 µg/mL (≈ 309 µM) | C[C@@H](n1cc2ccc([N+](=O)[O-])cc2n1)[C@](O)(Cn1cncn1)c1ccc(F)cc1F
7 | 4 µg/mL (≈ 10.3 µM) | 0.125 µg/mL (≈ 0.323 µM) | 0.031 µg/mL (≈ 0.08 µM) | ≤ 0.015 µg/mL | 0.5 µg/mL (≈ 1.29 µM) | 1 µg/mL (≈ 2.58 µM) | 0.25 µg/mL (≈ 0.645 µM) | ≤ 0.015 µg/mL | 0.5 µg/mL (≈ 1.29 µM) | 0.063 µg/mL (≈ 0.163 µM) | 0.5 µg/mL (≈ 1.29 µM) | C[C@@H](n1cc2cc(F)ccc2n1)[C@](O)(Cn1cncn1)c1ccc(F)cc1F
8 | 8 µg/mL (≈ 19.4 µM) | 0.5 µg/mL (≈ 1.21 µM) | 0.5 µg/mL (≈ 1.21 µM) | 0.063 µg/mL (≈ 0.153 µM) | 1 µg/mL (≈ 2.42 µM) | 2 µg/mL (≈ 4.85 µM) | 1 µg/mL (≈ 2.42 µM) | 0.063 µg/mL (≈ 0.153 µM) | 1 µg/mL (≈ 2.42 µM) | 0.25 µg/mL (≈ 0.606 µM) | 2 µg/mL (≈ 4.85 µM) | C[C@@H](n1ncc2cc(N(C)C)ccc21)[C@](O)(Cn1cncn1)c1ccc(F)cc1F
9 | – | – | – | – | – | – | – | 1 µg/mL (≈ 2.78 µM) | – | – | – | NN(Cc1ccccc1)C[C@](O)(Cn1cncn1)c1ccc(F)cc1F
10 | – | – | – | – | – | – | – | 2 µg/mL (≈ 4.08 µM) | – | – | – | C[C@@H](n1nc(-c2ccccc2)c2cc([N+](=O)[O-])ccc21)[C@](O)(Cn1cncn1)c1ccc(F)cc1F
11 | > 8 µg/mL | 1 µg/mL (≈ 2.41 µM) | 0.25 µg/mL (≈ 0.603 µM) | 0.125 µg/mL (≈ 0.302 µM) | 2 µg/mL (≈ 4.83 µM) | 4 µg/mL (≈ 9.65 µM) | 1 µg/mL (≈ 2.41 µM) | ≤ 0.015 µg/mL | 4 µg/mL (≈ 9.65 µM) | 0.063 µg/mL (≈ 0.152 µM) | 1 µg/mL (≈ 2.41 µM) | C[C@@H](n1cc2c([N+](=O)[O-])cccc2n1)[C@](O)(Cn1cncn1)c1ccc(F)cc1F
12 | – | – | – | – | 4 µg/mL (≈ 4.33 µM) | 0.5 µg/mL (≈ 0.541 µM) | 1 µg/mL (≈ 1.08 µM) | – | – | – | 2 µg/mL (≈ 2.16 µM) | C[C@@H]1[C@H](O)[C@@H](C)/C=C/C=C/C=C/C=C/C=C/C=C/C=C/[C@H](O[C@@H]2O[C@H](C)[C@@H](O)[C@H](N)[C@@H]2O)C[C@@H]2O[C@](O)(C[C@@H](O)C[C@@H](O)[C@H](O)CC[C@@H](O)C[C@@H](O)CC(=O)O[C@H]1C)C[C@H](O)[C@H]2C(=O)O [AMPHOTERICIN B]
